Among the data in patent US20220380338A1, “CYCLOALKYL 3-OXOPIPERAZINE CARBOXAMIDES AND CYCLOHETEROALKYL 3-OXOPIPERAZINE CARBOXAMIDES AS NAV1.8 INHIBITORS” (Merck Sharp & Dohme LLC, priority 2021, published 2022) are IC50 values, retold here.

Each structure is given as a SMILES string.

T1 sequence (Q9Y5Y9 whole entry): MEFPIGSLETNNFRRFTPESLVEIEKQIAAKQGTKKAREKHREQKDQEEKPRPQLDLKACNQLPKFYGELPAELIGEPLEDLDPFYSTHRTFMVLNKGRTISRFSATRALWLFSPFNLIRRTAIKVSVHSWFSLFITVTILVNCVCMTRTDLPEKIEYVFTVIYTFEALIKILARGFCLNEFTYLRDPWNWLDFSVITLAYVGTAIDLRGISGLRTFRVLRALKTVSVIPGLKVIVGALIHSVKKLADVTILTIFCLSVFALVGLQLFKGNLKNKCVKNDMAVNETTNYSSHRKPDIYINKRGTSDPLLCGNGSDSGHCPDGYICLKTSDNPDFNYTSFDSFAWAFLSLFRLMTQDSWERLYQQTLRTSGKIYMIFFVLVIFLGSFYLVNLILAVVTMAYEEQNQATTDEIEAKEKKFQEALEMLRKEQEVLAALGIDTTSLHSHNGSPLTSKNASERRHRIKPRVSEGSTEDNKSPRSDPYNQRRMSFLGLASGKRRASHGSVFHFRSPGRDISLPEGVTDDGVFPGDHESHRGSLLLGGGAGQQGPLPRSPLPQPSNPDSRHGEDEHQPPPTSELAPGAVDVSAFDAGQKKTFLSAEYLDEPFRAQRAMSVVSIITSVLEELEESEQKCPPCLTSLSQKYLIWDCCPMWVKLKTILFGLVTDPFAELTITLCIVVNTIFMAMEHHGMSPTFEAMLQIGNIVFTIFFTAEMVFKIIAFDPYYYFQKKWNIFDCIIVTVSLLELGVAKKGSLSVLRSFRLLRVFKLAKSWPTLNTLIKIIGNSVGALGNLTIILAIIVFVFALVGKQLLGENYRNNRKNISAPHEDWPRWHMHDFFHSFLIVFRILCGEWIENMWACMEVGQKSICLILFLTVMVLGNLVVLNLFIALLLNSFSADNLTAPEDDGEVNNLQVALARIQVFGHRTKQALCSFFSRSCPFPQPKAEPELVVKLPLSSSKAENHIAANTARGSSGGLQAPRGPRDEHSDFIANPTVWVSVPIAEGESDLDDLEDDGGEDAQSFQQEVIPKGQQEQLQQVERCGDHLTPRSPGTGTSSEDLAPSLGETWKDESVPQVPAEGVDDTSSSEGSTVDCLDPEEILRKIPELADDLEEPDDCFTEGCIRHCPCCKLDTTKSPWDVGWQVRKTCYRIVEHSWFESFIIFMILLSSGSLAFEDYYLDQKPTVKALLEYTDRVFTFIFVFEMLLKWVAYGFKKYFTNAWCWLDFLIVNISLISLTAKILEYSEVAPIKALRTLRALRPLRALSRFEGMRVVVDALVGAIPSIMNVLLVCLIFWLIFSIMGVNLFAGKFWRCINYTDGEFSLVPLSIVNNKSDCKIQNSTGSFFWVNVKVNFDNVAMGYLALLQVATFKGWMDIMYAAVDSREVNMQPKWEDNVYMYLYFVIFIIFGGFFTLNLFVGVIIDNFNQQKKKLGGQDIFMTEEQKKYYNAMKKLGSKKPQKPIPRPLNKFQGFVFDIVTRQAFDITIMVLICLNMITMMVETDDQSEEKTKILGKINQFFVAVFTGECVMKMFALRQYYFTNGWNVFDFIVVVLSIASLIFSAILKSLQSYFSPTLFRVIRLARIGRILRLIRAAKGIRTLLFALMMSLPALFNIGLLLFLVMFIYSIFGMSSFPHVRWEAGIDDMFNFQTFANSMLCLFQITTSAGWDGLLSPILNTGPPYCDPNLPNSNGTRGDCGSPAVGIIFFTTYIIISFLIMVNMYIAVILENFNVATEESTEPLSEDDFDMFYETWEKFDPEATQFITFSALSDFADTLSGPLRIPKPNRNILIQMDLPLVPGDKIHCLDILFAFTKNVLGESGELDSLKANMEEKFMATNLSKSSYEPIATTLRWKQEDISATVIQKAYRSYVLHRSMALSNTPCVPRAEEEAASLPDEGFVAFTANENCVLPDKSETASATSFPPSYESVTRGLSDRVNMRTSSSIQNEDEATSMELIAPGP

This test addresses T1, human NaV1.8 (Homo sapiens, UniProt Q9Y5Y9).
T1 construct: expressed in transfected cells
In words: Nav1.8 Qube® Assay (automated 384-well patch-clamp, inhibition of sodium current). In kind it is cell-based. The following applies: human NaV1.8 channels stably expressed in HEK 293 cells, room temperature. In a few lines:
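Whole-cell voltage clamp at room temperature in HEK293 cells stably expressing NaV1.8; from −90 mV hold, 10 s 1 Hz train of 20 ms pulses to 10 mV with 980 ms repolarization to −67 mV. Peak currents of 1st and 10th pulses give resting and inactivated-state IC50s, Hill fit.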
(The patch-clamp technique gives a direct electrical read-out from membranes.)
In the case of `C[C@@H]1C(=O)NCCN1C(=O)NC(c1ccc(Cl)c(C(F)(F)F)n1)C1CCC(F)(F)CC1` (single isomer, unassigned) [Example 46A, (2R)-N-((R or S)-(5-chloro-6-(trifluoro-methyl)pyridin-2-yl)(4,4-difluoro-cyclohexyl)methyl)-2-methyl-3-oxo-piperazine-1-carboxamide], the midpoint of inhibition, the IC50, lay at 343 nM.

Turning to `C[C@@H]1C(=O)NCCN1C(=O)NC(c1ccc(Cl)c(C(F)(F)F)n1)C1CCC(F)(F)CC1` (single isomer, unassigned) [Example 46B, (2R)-N-((S or R)-(5-chloro-6-(trifluoro-methyl)pyridin-2-yl)(4,4-difluoro-cyclohexyl)methyl)-2-methyl-3-oxo-piperazine-1-carboxamide], the IC50 (in general, the midpoint of a concentration-inhibition curve) was determined as 23.7 nM.

`C[C@@H]1C(=O)NCCN1C(=O)NC(c1ccc(Cl)c(C(F)(F)F)n1)C1CC(C(F)(F)F)C1` (single isomer, unassigned) [Example 47A, (2R)—N—((R or S)-(5-chloro-6-(trifluoromethyl)pyridin-2-yl)(cis-3-(trifluoromethyl)-cyclobutyl)methyl)-2-methyl-3-oxopiperazine-1-carboxamide] displayed an IC50 of 11.4 nM.

With `C[C@@H]1C(=O)NCCN1C(=O)NC(c1ccc(Cl)c(C(F)(F)F)n1)C1CC(C(F)(F)F)C1` (single isomer, unassigned) [Example 47B, (2R)—N—((R or S)-(5-chloro-6-(trifluoromethyl)pyridin-2-yl)(trans-3-(trifluoromethyl)cyclobutyl)methyl)-2-methyl-3-oxopiperazine-1-carboxamide], the IC50 worked out at 61.8 nM. As to `C[C@@H]1C(=O)NCCN1C(=O)NC(c1ccc(Cl)c(C(F)(F)F)n1)C1CC(C(F)(F)F)C1` (single isomer, unassigned) [Example 47C, (2R)—N—((S or R)-(5-chloro-6-(trifluoromethyl)pyridin-2-yl)(trans-3-(trifluoromethyl)cyclobutyl)methyl)-2-methyl-3-oxopiperazine-1-carboxamide], it took 2.66 nM to reach half-maximal inhibition (IC50). The same measure for `C[C@@H]1C(=O)NCCN1C(=O)NC(c1ccc(Cl)c(C(F)(F)F)n1)C1CC(C(F)(F)F)C1` (single isomer, unassigned) [Example 47D, (2R)—N—((S or R)-(5-chloro-6-(trifluoromethyl)pyridin-2-yl)(cis-3-(trifluoromethyl)-cyclobutyl)methyl)-2-methyl-3-oxopiperazine-1-carboxamide]: 36.6 nM. The same measure for `C[C@@H]1C(=O)NCCN1C(=O)NC(C)(c1ccc(F)c(Cl)c1)C1CC(C(F)(F)F)C1` (single isomer, unassigned) [Example 48A, (2R)—N—((R or S)-1-(3-chloro-4-fluorophenyl)-1-(cis-3-(trifluoromethyl)cyclobutyl)ethyl)-2-methyl-3-oxopiperazine-1-carboxamide]: 4370 nM. The same measure for `C[C@@H]1C(=O)NCCN1C(=O)NC(C)(c1ccc(F)c(Cl)c1)C1CC(C(F)(F)F)C1` (single isomer, unassigned) [Example 48B, (2R)—N—((R or S)-1-(3-chloro-4-fluorophenyl)-1-(trans-3-(trifluoromethyl)cyclobutyl)ethyl)-2-methyl-3-oxopiperazine-1-carboxamide]: 904 nM; for `C[C@@H]1C(=O)NCCN1C(=O)NC(C)(c1ccc(F)c(Cl)c1)C1CC(C(F)(F)F)C1` (single isomer, unassigned) [Example 48C, (2R)—N—((S or R)-1-(3-chloro-4-fluorophenyl)-1-(cis-3-(trifluoromethyl)cyclobutyl)ethyl)-2-methyl-3-oxopiperazine-1-carboxamide]: 312 nM; for `C[C@@H]1C(=O)NCCN1C(=O)NC(C)(c1ccc(F)c(Cl)c1)C1CC(C(F)(F)F)C1` (single isomer, unassigned) [Example 48D, (2R)—N—((S or R)-1-(3-chloro-4-fluorophenyl)-1-(trans-3-(trifluoromethyl)cyclobutyl)ethyl)-2-methyl-3-oxopiperazine-1-carboxamide]: 515 nM. For `C[C@@H]1C(=O)NCCN1C(=O)NC(c1ccc(OC(F)(F)F)c(F)c1)[C@H]1C[C@H](C(F)(F)F)C1` (single isomer, unassigned) [Example 49A], inhibition was half-maximal at 4.46 nM (IC50). The same measure for `C[C@@H]1C(=O)NCCN1C(=O)NC(c1ccc(OC(F)(F)F)c(F)c1)[C@H]1C[C@H](C(F)(F)F)C1` (single isomer, unassigned) [Example 49B]: 84.6 nM; for `C[C@@H]1C(=O)NCCN1C(=O)NC(c1ccc(OC(F)(F)F)cc1F)[C@H]1C[C@H](C(F)(F)F)C1` (single isomer, unassigned) [Example 50A, ((2R)-N-((R or S)-(2-fluoro-4-(trifluoro-methoxy)phenyl)(trans-3-(trifluoromethyl)-cyclobutyl)methyl)-2-methyl-3-oxopiperazine-1-carboxamide]: 389 nM; for `C[C@@H]1C(=O)NCCN1C(=O)NC(c1ccc(OC(F)(F)F)cc1F)[C@H]1C[C@H](C(F)(F)F)C1` (single isomer, unassigned) [Example 50B, (2R)-N-((S or R)-(2-fluoro-4-(trifluoro-methoxy)phenyl)(trans-3-(trifluoro-methyl)-cyclobutyl)-methyl)-2-methyl-3-oxopiperazine-1-carboxamide]: 9.01 nM. The compound `C[C@@H]1C(=O)NCCN1C(=O)NC(c1ccc(F)c(C(F)(F)F)c1)[C@H]1C[C@H](C(F)(F)F)C1` (single isomer, unassigned) [Example 51A, (2R)-N-((R or S)-(4-fluoro-3-(trifluoro-methyl)phenyl)(trans-3-(trifluoro-methyl)-cyclo-butyl)methyl)-2-methyl-3-oxo-piperazine-1-carboxamide] displayed an IC50 of 117 nM.

Compound `C[C@@H]1C(=O)NCCN1C(=O)NC(c1ccc(F)c(C(F)(F)F)c1)[C@H]1C[C@H](C(F)(F)F)C1` (single isomer, unassigned) [Example 51B, (2R)-N-((S or R)-(4-fluoro-3-(trifluoro-methyl)phenyl)(trans-3-(trifluoro-methyl)-cyclobutyl)methyl)-2-methyl-3-oxopiperazine-1-carboxamide] returned a concentration for half-maximal inhibition (IC50) of 3.03 nM. Against the preceding compound, the IC50 is about 39-fold lower.

Compound `O=C1CN(C(=O)NC(c2ccc(F)c(C(F)(F)F)c2)[C@H]2C[C@H](C(F)(F)F)C2)CCN1` (single isomer, unassigned) [Example 52A, N-((R or S)-(4-fluoro-3-(trifluoromethyl)phenyl) (trans-3-(trifluoro-methyl)cyclobutyl)-methyl)-3-oxo-piperazine-1-carboxamide] returned a concentration for half-maximal inhibition (IC50) of 320 nM. The same measure for `O=C1CN(C(=O)NC(c2ccc(F)c(C(F)(F)F)c2)[C@H]2C[C@H](C(F)(F)F)C2)CCN1` (single isomer, unassigned) [Example 52B, N-((S or R)-(4-fluoro-3-(trifluoromethyl)phenyl) (trans-3-(trifluoro-methyl)cyclobutyl)-methyl)-3-oxo-piperazine-1-carboxamide]: 11.8 nM; for `C[C@@H]1C(=O)NCCN1C(=O)NC(c1cccc(Cl)c1F)[C@H]1C[C@H](C(F)(F)F)C1` (single isomer, unassigned) [Example 53A, (2R)-N-((R or S)-(3-chloro-2-fluorophenyl)-(trans-3-(trifluoro-methyl)cyclobutyl)meth-yl)-2-methyl-3-oxo-piperazine-1-carboxamide]: 538 nM. The same measure for `C[C@@H]1C(=O)NCCN1C(=O)NC(c1cccc(Cl)c1F)[C@H]1C[C@H](C(F)(F)F)C1` (single isomer, unassigned) [Example 53B, (2R)-N-((S or R)-(3-chloro-2-fluorophenyl)-(trans-3-(trifluoro-methyl)cyclobutyl)meth-yl)-2-methyl-3-oxo-piperazine-1-carboxamide]: 9.06 nM; for `C[C@@H]1C(=O)NCCN1C(=O)NC(c1ccc(OC(F)(F)F)c(Cl)c1)C1CC(C(F)(F)F)C1` (single isomer, unassigned) [Example 54A, (2R)-N-((R or S)-(3-chloro-4-(trifluoro-methoxy)phenyl)(3-(trifluoromethyl)cyclo-butyl)methyl)-2-methyl-3-oxopiperazine-1-carboxamide]: 1.7 nM. The same measure for `C[C@@H]1C(=O)NCCN1C(=O)NC(c1ccc(OC(F)(F)F)c(Cl)c1)C1CC(C(F)(F)F)C1` (single isomer, unassigned) [Example 54B, (2R)-N-((S or R)-(3-chloro-4-(trifluoro-methoxy)phenyl)(3-(trifluoromethyl)cyclo-butyl)methyl)-2-methyl-3-oxopiperazine-1-carboxamide]: 4.18 nM. `C[C@@H]1C(=O)NCCN1C(=O)NC(c1csc(C(F)(F)F)n1)[C@H]1CC[C@H](C(F)(F)F)CC1` (single isomer, unassigned) [Example 55A] showed an IC50 of 494 nM.

Regarding `C[C@@H]1C(=O)NCCN1C(=O)NC(c1csc(C(F)(F)F)n1)[C@H]1CC[C@H](C(F)(F)F)CC1` (single isomer, unassigned) [Example 55B], inhibition was half-maximal at 26.3 nM (IC50). The same measure for `C[C@@H]1C(=O)NCCN1C(=O)NC(c1ccc(F)c(Cl)c1F)[C@H]1C[C@@H]1C(F)(F)F` (single isomer, unassigned) [Example 57C]: 566 nM. The same measure for `C[C@@H]1C(=O)NCCN1C(=O)NC(c1ccc(F)c(Cl)c1F)[C@H]1C[C@@H]1C(F)(F)F` (single isomer, unassigned) [Example 57D]: 12 nM. The same measure for `C[C@@H]1C(=O)NCCN1C(=O)NC(c1ccc(F)c(Cl)c1F)C1CCC(C(F)(F)F)C1` (single isomer, unassigned) [Example 58A, (2R)—N—((R or S)-(3-chloro-2,4-difluorophenyl)(cis-3-(trifluoromethyl)cyclopentyl)methyl)-2-methyl-3-oxopiperazine-1-carboxamide]: 9.23 nM.
